In patent US20260069571A1, “DDR1 AND DDR2 INHIBITORS FOR THE TREATEMENT OF CANCER AND FIBROTIC DISEASES” (REDX PHARMA PLC, priority 2021, published 2026):

Columns and labels:
Recombinant human DDR1 = Recombinant human DDR1 (Homo sapiens (Human), UniProt Q08345); assay: LanthaScreen Eu Kinase Binding Assay, DDR1; settings: DDR1 2.5 nM (aa440-876, GST tag), Kinase Tracer 178 5 nM; for IC50: read-out: DDR1 pIC50 (converted)
Experimental: (§1) DDR1 and DDR2 Biochemical Assay Method
(§2) The capacity of compounds to bind to DDR1 and DDR2 was quantified using a LanthaScreen Eu Kinase Binding Assay. Recombinant human DDR1 (2.5 nM; aa440-876 containing a GST tag) and DDR2 (1.75 nM; aa427-855 containing a GST tag) were diluted in assay buffer (50 mM HEPES pH7.3, 10 mM MgCl2, 1 mM EGTA and 0.01% Tween) with various concentrations of compound in a 384-well plate and a volume of 5 uL. After a 30-minute incubation at room temperature, 2.5 uL of Eu-anti GST antibody (diluted to 1 nM in assay buffer) plus Kinase Tracer 178 (diluted in assay buffer to 5 nM for DDR1 and 10 nM for DDR2) were added to the plate. Following 60-minute incubation at room temperature, time-resolved fluorescence was measured on a BMG Labtech PHERAstar plate reader. DMSO (1%) and reference compound (1 μM) were used to generate the Max and Min assay signals, respectively. Data was analysed using a four-parameter logistic model to calculate IC50 values, with at least two independent replicates were performed for each compound.

Recombinant human DDR2 = Recombinant human DDR2 (Homo sapiens (Human), UniProt Q16832); assay: LanthaScreen Eu Kinase Binding Assay, DDR2; settings: DDR2 1.75 nM (aa427-855, GST tag), Kinase Tracer 178 10 nM; for IC50: read-out: DDR2 pIC50 (converted)
Chain of Recombinant human DDR2 (Q16832 427-855): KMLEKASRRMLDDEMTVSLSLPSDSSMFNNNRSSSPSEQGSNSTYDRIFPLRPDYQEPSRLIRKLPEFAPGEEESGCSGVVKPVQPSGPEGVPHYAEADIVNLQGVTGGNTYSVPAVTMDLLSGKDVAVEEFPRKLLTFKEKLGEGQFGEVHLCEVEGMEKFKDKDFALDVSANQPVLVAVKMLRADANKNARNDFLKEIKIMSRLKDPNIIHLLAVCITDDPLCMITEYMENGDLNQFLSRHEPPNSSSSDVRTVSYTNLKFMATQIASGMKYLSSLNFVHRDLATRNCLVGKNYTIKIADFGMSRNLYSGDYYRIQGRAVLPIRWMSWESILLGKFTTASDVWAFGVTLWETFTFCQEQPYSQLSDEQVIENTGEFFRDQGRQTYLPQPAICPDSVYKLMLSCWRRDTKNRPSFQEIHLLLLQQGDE
Experimental: as §1, §2

Chain of Recombinant human DDR1 (Q08345 other isoform, or with tags, fused parts or gaps): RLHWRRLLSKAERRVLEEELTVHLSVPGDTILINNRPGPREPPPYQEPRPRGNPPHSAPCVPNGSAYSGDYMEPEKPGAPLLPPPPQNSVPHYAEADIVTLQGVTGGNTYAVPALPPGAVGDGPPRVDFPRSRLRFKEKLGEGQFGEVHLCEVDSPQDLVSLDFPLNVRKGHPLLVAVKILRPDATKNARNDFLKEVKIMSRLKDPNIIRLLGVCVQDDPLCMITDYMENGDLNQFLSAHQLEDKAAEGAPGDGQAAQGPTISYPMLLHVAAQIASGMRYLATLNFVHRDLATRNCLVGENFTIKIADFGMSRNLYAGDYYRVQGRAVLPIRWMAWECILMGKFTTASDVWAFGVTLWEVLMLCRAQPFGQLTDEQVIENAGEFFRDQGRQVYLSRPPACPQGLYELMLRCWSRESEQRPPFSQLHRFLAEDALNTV

Row | SMILES | IC50 (Recombinant human DDR1) [nM] | IC50 (Recombinant human DDR2) [nM] | DDR1 pIC50 (Recombinant human DDR1) | DDR2 pIC50 (Recombinant human DDR2)
1 | C[C@H](NC(=O)CN1Cc2cccc(N(C)c3cnc4[nH]ncc4c3)c2C1=O)C(F)(F)F [Example 89, 2-[7-[methyl(1H-pyrazolo[3,4-b]pyridin-5-yl)amino]-1-oxo-isoindolin-2-yl]-N-[(1S)-2,2,2-trifluoro-1-methyl-ethyl]acetamide] | 10 to 100 | 10 to 100 | – | –
2 | Cn1ncc2cc(Nc3cccc4c3C(=O)N(CC(=O)NC3CC3(F)F)C4)ccc21 (stereo not drawn) [Example 24, N-(2,2-difluorocyclopropyl)-2-[7-[(1-methylindazol-5-yl)amino]-1-oxo-isoindolin-2-yl]acetamide] | – | 10 to 100 | A (pIC50>8) | –
3 | O=C1c2c(cccc2Nc2ccc3[nH]nc(F)c3c2)CN1CC(=O)N1CCC[C@H]1C(F)(F)F [Example 83, 7-[(3-fluoro-1H-indazol-5-yl)amino]-2-[2-oxo-2-[(2S)-(trifluoromethyl)pyrrolidin-1-yl]ethyl]isoindolin-1-one] | 10 to 100 | 10 to 100 | – | –
4 | Cc1n[nH]c2cc(Nc3cccc4c3C(=O)N(CC(=O)N3CCC[C@H]3C(F)F)C4)ccc12 [Example 41, 7-[(3-methyl-1H-indazol-6-yl)amino]-2-[2-oxo-2-[(2S)-(difluoromethyl)pyrrolidin-1-yl]ethyl]isoindolin-1-one] | – | – | A (pIC50>8) | A (pIC50>8)
5 | Cn1ncc2cc(Nc3cccc4c3C(=O)N(CC(=O)Nc3cnoc3)C4)ccc21 [Example 4, N-isoxazol-4-yl-2-[7-[(1-methylindazol-5-yl)amino]-1-oxo-isoindolin-2-yl]acetamide] | – | – | A (pIC50>8) | A (pIC50>8)
6 | Cn1ncc2cc(Nc3cccc4c3C(=O)N(CC(=O)NC3CC3(F)F)C4)cnc21 (stereo not drawn) [Example 52, N-(2,2-difluorocyclopropyl)-2-[7-[(1-methylpyrazolo[3,4-b]pyridin-5-yl)amino]-1-oxo-isoindolin-2-yl]acetamide] | 10 to 100 | 100 to 1000 | – | –
7 | CN(C)Cc1cc(NC(=O)CN2Cc3cccc(Nc4ccc5c(cnn5C)c4)c3C2=O)cc(C(F)(F)F)c1 [Example 20, N-[3-[(dimethylamino)methyl]-5-(trifluoromethyl)phenyl]-2-[7-[(1-methylindazol-5-yl)amino]-1-oxo-isoindolin-2-yl]acetamide] | – | 10 to 100 | A (pIC50>8) | –
8 | CN(c1cnc2[nH]ncc2c1)c1cccc2c1C(=O)N(CC(=O)NCC(F)(F)F)C2 [Example 90, 2-[7-[methyl(1H-pyrazolo[3,4-b]pyridin-5-yl)amino]-1-oxo-isoindolin-2-yl]-N-(2,2,2-trifluoroethyl)acetamide] | 10 to 100 | 100 to 1000 | – | –
9 | O=C1c2c(cccc2Nc2cnc3[nH]ncc3c2)CN1CC(=O)N1CCC[C@H]1C(F)(F)F [Example 74, 2-[2-oxo-2-[(2S)-(trifluoromethyl)pyrrolidin-1-yl]ethyl]-7-(1H-pyrazolo[3,4-b]pyridin-5-ylamino)isoindolin-1-one] | < 10 | < 10 | – | –
10 | CN(CC(F)(F)F)C(=O)CN1Cc2cccc(Nc3cnc4[nH]ncc4c3)c2C1=O [Example 76, N-methyl-2-[1-oxo-7-(1H-pyrazolo[3,4-b]pyridin-5-ylamino)isoindolin-2-yl]-N-(2,2,2-trifluoroethyl)acetamide] | 10 to 100 | 10 to 100 | – | –
11 | Cn1ncc2cc(Nc3cccc4c3C(=O)N(CC(=O)N3CCOC(C(F)(F)F)C3)C4)ccc21 (stereo not drawn) [Example 26, 7-[(1-methylindazol-5-yl)amino]-2-[2-oxo-2-[2-(trifluoromethyl)morpholin-4-yl]ethyl]isoindolin-1-one] | 10 to 100 | 10 to 100 | – | –
12 | Cn1ncc2cc(Nc3cccc4c3C(=O)N(CC(=O)N3CCC[C@H]3C(F)F)C4)ccc21 [Example 16, 2-[2-[(2S)-(difluoromethyl)pyrrolidin-1-yl]-2-oxo-ethyl]-7-[(1-methylindazol-5-yl)amino]isoindolin-1-one] | < 10 | < 10 | – | –
13 | Cc1n[nH]c2cc(Nc3cccc4c3C(=O)N(CC(=O)N3CCO[C@H](C(F)(F)F)C3)C4)cnc12 [Example 69, 7-[(3-methyl-1H-pyrazolo[4,3-b]pyridin-6-yl)amino]-2-[2-oxo-2-[(2S)-(trifluoromethyl)morpholin-4-yl]ethyl]isoindolin-1-one] | 10 to 100 | 100 to 1000 | – | –
14 | Cc1n[nH]c2nc(Nc3cccc4c3C(=O)N(CC(=O)NCC(F)(F)F)C4)ccc12 [Example 61, 2-[7-[(3-methyl-1H-pyrazolo[3,4-b]pyridin-6-yl)amino]-1-oxo-isoindolin-2-yl]-N-(2,2,2-trifluoroethyl)acetamide] | 100 to 1000 | – | – | D (pIC50≤6)
15 | Cc1n[nH]c2cc(Nc3cccc4c3C(=O)N(CC(=O)N3CCOC[C@@H]3C(F)(F)F)C4)cnc12 [Example 71, 7-[(3-methyl-1H-pyrazolo[4,3-b]pyridin-6-yl)amino]-2-[2-oxo-2-[(3R)-(trifluoromethyl)morpholin-4-yl]ethyl]isoindolin-1-one] | 10 to 100 | 10 to 100 | – | –
16 | Cn1ncc2cc(Nc3cccc4c3C(=O)N(CC(=O)Nc3cccc(C(F)(F)F)c3)C4)cnc21 [Example 59, 2-[7-[(1-methylpyrazolo[3,4-b]pyridin-5-yl)amino]-1-oxo-isoindolin-2-yl]-N-[3-(trifluoromethyl)phenyl]acetamide] | 10 to 100 | 100 to 1000 | – | –
17 | O=C(CN1Cc2cccc(Nc3cnc4[nH]ncc4c3)c2C1=O)NC1CC1(F)F (stereo not drawn) [Example 75, N-(2,2-difluorocyclopropyl)-2-[1-oxo-7-(1H-pyrazolo[3,4-b]pyridin-5-ylamino)isoindolin-2-yl]acetamide] | 10 to 100 | 100 to 1000 | – | –
18 | Cn1ncc2cc(Nc3nccc4c3C(=O)N(CC(=O)N3CCC[C@H]3C(F)(F)F)C4)ccc21 [Example 97, 4-[(1-methylindazol-5-yl)amino]-2-[2-oxo-2-[(2S)-(trifluoromethyl)pyrrolidin-1-yl]ethyl]-1H-pyrrolo[3,4-c]pyridin-3-one] | 10 to 100 | 100 to 1000 | – | –
19 | Cn1ncc2cc(Nc3cccc4c3C(=O)N(CC(=O)NCC(F)(F)F)C4(F)F)ccc21 [Example 79, 2-[1,1-difluoro-4-[(1-methylindazol-5-yl)amino]-3-oxo-isoindolin-2-yl]-N-(2,2,2-trifluoroethyl)acetamide] | 10 to 100 | – | – | D (pIC50≤6)
20 | Cc1n[nH]c2cc(Nc3cccc4c3C(=O)N(CC(=O)N3CCO[C@H](C(F)(F)F)C3)C4)ccc12 [Example 48, 7-[(3-methyl-1H-indazol-6-yl)amino]-2-[2-oxo-2-[(2S)-(trifluoromethyl)morpholin-4-yl]ethyl]isoindolin-1-one] | – | 10 to 100 | A (pIC50>8) | –
21 | N#Cc1n[nH]c2ccc(Nc3cccc4c3C(=O)N(CC(=O)N3CCC[C@H]3C(F)(F)F)C4)cc12 [Example 82, 5-[[3-oxo-2-[2-oxo-2-[(2S)-(trifluoromethyl)pyrrolidin-1-yl]ethyl]isoindolin-4-yl]amino]-1H-indazole-3-carbonitrile] | 10 to 100 | ≥ 1000 | – | –
22 | Cn1ncc2cc(Nc3cccc4c3C(=O)N(CC(=O)NC(C)(C)C(F)(F)F)C4)ccc21 [Example 49, 2-[7-[(1-methylindazol-5-yl)amino]-1-oxo-isoindolin-2-yl]-N-(2,2,2-trifluoro-1,1-dimethyl-ethyl)acetamide] | – | – | A (pIC50>8) | A (pIC50>8)
23 | Cn1ncc2cc(Nc3cccc4c3C(=O)N(CC(=O)N3CCO[C@@H](C(F)(F)F)C3)C4)cnc21 [Example 55, 7-[(1-methylpyrazolo[3,4-b]pyridin-5-yl)amino]-2-[2-oxo-2-[(2R)-(trifluoromethyl)morpholin-4-yl]ethyl]isoindolin-1-one] | 100 to 1000 | 100 to 1000 | – | –
24 | Cc1n[nH]c2cc(Nc3cccc4c3C(=O)N(CC(=O)N3CCCC(C(F)(F)F)C3)C4)ccc12 (stereo not drawn) [Example 32, 7-[(3-methyl-1H-indazol-6-yl)amino]-2-[2-oxo-2-[3-(trifluoromethyl)-1-piperidyl]ethyl]isoindolin-1-one] | – | – | A (pIC50>8) | A (pIC50>8)
25 | CN(c1ccc2[nH]nc(C#N)c2c1)c1cccc2c1C(=O)N(CC(=O)N1CCC[C@H]1C(F)(F)F)C2 [Example 86, 5-[methyl-[3-oxo-2-[2-oxo-2-[(2S)-(trifluoromethyl)pyrrolidin-1-yl]ethyl]isoindolin-4-yl]amino]-1H-indazole-3-carbonitrile] | 10 to 100 | 10 to 100 | – | –
26 | Cn1ncc2cc(Nc3cccc4c3C(=O)N(CC(=O)NCC(F)(F)F)C4)cc(Cl)c21 [Example 27, 2-[7-[(7-chloro-1-methyl-indazol-5-yl)amino]-1-oxo-isoindolin-2-yl]-N-(2,2,2-trifluoroethyl)acetamide] | – | – | A (pIC50>8) | A (pIC50>8)
27 | Cc1nn(C)c2ncc(Nc3cccc4c3C(=O)N(CC(=O)N3CCC[C@H]3C(F)(F)F)C4)cc12 [Example 102, 7-[(1,3-dimethylpyrazolo[3,4-b]pyridin-5-yl)amino]-2-[2-oxo-2-[(2S)-(trifluoromethyl)pyrrolidin-1-yl]ethyl]isoindolin-1-one] | 10 to 100 | 100 to 1000 | – | –
